Measurements from patent US7098232B1, “Treatment and prevention of gastrointestinal disease using antagonists of partial agonists of 5HT1a receptors” (Athpharma Limited, priority 1999, dated 2006).

How the values were obtained:
[1] = test system: patients suffering from non-ulcerative dyspepsia; test: Clinical study of pindolol in non-ulcerative dyspepsia (GSRS scores); format: in vivo, humans; settings: 2.5 mg three times daily
Experimental: The invention is intended for the treatment of mammals, including humans.
Eleven patients suffering from non-ulcerative dyspepsia were recruited to a clinical study and gave informed consent. All were treated with pindolol 2.5 mg three times daily. […] A further patient improved in the second week. Their responses were quantified using a standard rating scale (GSRS scores).

5HT1a receptor = molecular target: T1, 5HT1a receptor (Homo sapiens, UniProt P08908); test: Buspirone challenge, prolactin release; format: in vivo; settings: buspirone 30 mg orally; for Prolactin AUC (mean±SD): blood 0-180 min
T1 construct: Buspirone (30mg) or, matching placebo was administered orally; from tissue; host or cells: living human subjects (central receptors)
T1 sequence (P08908 1-422): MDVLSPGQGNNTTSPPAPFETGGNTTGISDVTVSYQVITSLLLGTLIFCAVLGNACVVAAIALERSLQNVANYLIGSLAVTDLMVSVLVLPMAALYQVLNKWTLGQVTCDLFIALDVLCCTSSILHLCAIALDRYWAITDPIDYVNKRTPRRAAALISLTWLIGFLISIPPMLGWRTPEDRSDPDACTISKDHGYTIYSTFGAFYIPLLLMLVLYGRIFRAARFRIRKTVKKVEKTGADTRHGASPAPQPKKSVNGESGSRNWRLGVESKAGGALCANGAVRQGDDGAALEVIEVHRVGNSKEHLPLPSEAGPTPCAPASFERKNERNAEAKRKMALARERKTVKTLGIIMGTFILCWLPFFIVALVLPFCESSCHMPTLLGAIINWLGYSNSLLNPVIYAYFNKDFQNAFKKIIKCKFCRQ
Source text: Studies indicate that a central 5HT1a receptor hypersensitivity may be involved in the pathophysiology of NUD (13,14). The release of prolactin from the anterior pituitary is under dopamine inhibition and under 5HT stimulation, probably at the level of the hypothalamus (15).
A total of 109 subjects, 50 NUD patients (39 female/11 male) and 59 healthy comparison subjects ([…]) gave fully informed consent to take part in the study, which had Ethics Committee approval. […] Buspirone (30mg) or, matching placebo was administered orally at 0900 h (Time 0). Blood was taken at 0, 30, 60, 90, 120 and 180 min.

gastric emptying = settings: intracerebroventricular injection, animal studies; cited from earlier work

Compound: CC(C)NCC(O)COc1cccc2[nH]ccc12 (racemic) [pindolol]
- Mean GSRS Score ([1]; Week 0 (baseline), average of 11 patients): 9
- Mean GSRS Score ([1]; Week 1, average of 11 patients): 4.2
- Mean GSRS Score ([1]; Week 2, average of 11 patients): 3.5
- Mean GSRS Score ([1]; Week 3, average of 11 patients): 2.9
- Reduction in average symptom severity ([1]; in three weeks): approximately 68%
- Patients with significant improvement in symptoms ([1]; within 1 week of commencing treatment): Seven of the 11

Compound: O=C1CC2(CCCC2)CC(=O)N1CCCCN1CCN(c2ncccn2)CC1 [Buspirone]
- Prolactin AUC (mean±SD) (5HT1a receptor; NUD patients): 46±35
- Prolactin levels after challenge (5HT1a receptor; all subjects): rose in all subjects
- Prolactin AUC (mean±SD) (5HT1a receptor; healthy subjects): 24±35

Compound: CCNC(C)Cc1cccc(C(F)(F)F)c1 (stereo not shown) [fenfluramine]
- Effect on gastric emptying (gastric emptying): inhibits gastric emptying
